{"source": "patent US20070244202A1", "about": "“Ampk Activator” (KAO CORPORATION, priority 2004, published 2007)", "key": {"[1]": {"test_system": "lipid metabolism activity (β-oxidation activity)", "test": "Lipid metabolism activating effect: lipid degradation (β-oxidation) activity of liver and skeletal muscle after oral administration", "type": "in vivo, mouse", "procedure": "Seven-week-old Balb/c male mice were divided into two groups, and saline (control) or resveratrol (200 mg/kg body weight) was orally administered for 10 consecutive days. Thereafter, the liver and skeletal muscle (gastrocnemius muscle+soleus muscle) were collected from each of the animals. Each of the thus-collected liver and skeletal muscle was homogenized in buffer (250 mM sucrose, 1 mM EDTA in 10 mM HEPES (pH 7.2)), and insoluble tissue residues were centrifugally separated, whereby a supernatant was obtained. The thus-obtained supernatant was subjected to measurement of protein content, and the protein content was regulated to a constant level between samples. Each of the resultant samples was employed for measurement of lipid metabolism activity (β-oxidation activity). The supernatant protein (100 μg) was reacted with 0.1 μCi [^14C]-palmitic acid at 37° C. for 20 minutes in 200 μL (final volume) of buffer (50 mM Tris-HCl (pH 8.0), 40 mM NaCl, 2 mM KCl, 2 mM MgCl2, 1 mM DTT, 5 mM ATP, 0.2 mM L-carnitine, 0.2 mM NAD, 0.06 mM FAD, 0.12 mM CoA, 3 mM α-cyclodextrin). The reaction was stopped with 200 μL of 0.6 N perchloric acid, and then unreacted [^14C]-palmitic acid was removed three times with hexane (1 mL). Lipid degradation activity was evaluated through measurement of the radioactivity of the aqueous layer.\nLipid degradation activity was calculated relative to that of the control, which was taken as 100. […] As is clear from the test results, resveratrol is effective for activation of lipid metabolism."}, "[2]": {"test_system": "AMPK (AMP-activated protein kinase)", "test": "AMPK activation evaluated by phosphorylation of AMPK α and β (Western blot) in mouse hepatocyte line Hepa 1-6", "type": "cell-based", "details": "Hepa 1-6 cells", "procedure": "The AMPK activation effect of resveratrol was evaluated on the basis of phosphorylation of AMPK α and β through the below-described method by use of a mouse hepatocyte line (Hepa 1-6). Mouse hepatocyte cells (Hepa 1-6) were seeded in a 25-cm^2 flask, and cultured in DMEM (+10% FBS, +antibacterial agent) at 37° C. for one to two days. The culture medium was removed when the cells became subconfluent, and the cells were washed with PBS (−), followed by replacement with DMEM (−FBS) and further culturing for one day. After the culture medium was removed, DMEM (−FBS) containing a predetermined amount of resveratrol was added, followed by culturing for 60 minutes. Thereafter, the culture medium was removed, and the cells were washed with PBS (−), followed by addition of 200 μL of a cytolytic solution (10 mmol/L Tris (pH 7.4), 50 mmol/L sodium chloride, 30 mmol/L sodium pyrophosphate, 0.5 mass % Triton X-100, protease inhibitor cocktail (SIGMA P2714), phosphatase inhibitor cocktail-2 (SIGMA P5726)). The resultant cell lysate was collected with a cell scraper. The thus-collected cell lysate was thoroughly homogenized by passing it through a syringe using a 23-G needle (3 times), and then the cell lysate was allowed to stand on ice for 30 minutes. […] After the concentration of the supernatant protein was measured, the protein concentration was regulated to a constant level between samples. […] Thereafter, phospho-AMPK was detected by use of anti-phospho-AMPKα (Thr72) antibody (product of Cell Signaling) or anti-phospho-AMPKβ (Ser108) antibody (product of Cell Signaling) serving as a primary antibody, anti-rabbit-HRP antibody (product of Amersham) serving as a secondary antibody, and phototope-HRP Western Detection System (product of Cell Signaling) serving as a detection reagent. The intensity of the thus-detected band was converted into numerical data (pixels) through image analysis (EDAS 290 image analysis system: KODAK), and the degree of AMPK activation was calculated relative to the control (i.e., group containing no sample), which was taken as 100. […]"}, "[3]": {"test_system": "AMPK (AMP-activated protein kinase)", "test": "AMPK activation evaluated by phosphorylation of AMPK α and β (Western blot) in mouse muscle cell line C2C12", "type": "cell-based", "procedure": "The AMPK activation effect of resveratrol was evaluated on the basis of phosphorylation of AMPK α and β through the below-described method by use of a mouse muscle cell line (C2C12). Mouse muscle cells (C2C12) were seeded in a 25-cm^2 flask, and cultured in DMEM (+10% FBS, +antibacterial agent) at 37° C. for one to two days. The culture medium was removed when the cells reached confluent, and the cells were washed with PBS (−), followed by replacement with DMEM (2 mass % Horse serum) and further culturing for seven to eight days while the culture medium was exchanged every two or three days. Thereafter, the culture medium was removed, and the cells were washed with PBS (−), followed by replacement with DMEM (−FBS) and further culturing for one day. After the culture medium was removed, DMEM (−FBS) containing a predetermined amount of resveratrol was added, followed by culturing for 60 minutes. […] After the concentration of the supernatant protein was measured, the protein concentration was regulated to a constant level between samples. […] Thereafter, phospho-AMPK was detected by use of anti-phospho-AMPKα (Thr72) antibody (product of Cell Signaling) or anti-phospho-AMPKβ (Ser108) antibody (product of Cell Signaling) serving as a primary antibody, anti-rabbit-HRP antibody (product of Amersham) serving as a secondary antibody, and phototope-HRP Western Detection System (product of Cell Signaling) serving as a detection reagent. The intensity of the thus-detected band was converted into numerical data (pixels) through image analysis (EDAS 290 image analysis system: KODAK), and the degree of AMPK activation was calculated relative to the control (i.e., group containing no sample), which was taken as 100. […]"}, "C57BL/6 male mice": {"test_system": "C57BL/6 male mice", "test": "Efficacy of resveratrol in mice fed a high-fat diet for 24 weeks (body, fat and liver weight, blood analysis)", "type": "in vivo, mouse", "procedure": "Seven-week-old C57BL/6 male mice (CLEA Japan, Inc.) were employed, and the animals were divided into three groups, each containing 10 to 15 animals. Twenty-four weeks after initiation of the test, body weight was measured, and blood was collected under anesthesia and non-fasting conditions for measurement of plasma glucose, cholesterol, insulin, and leptin. In addition, visceral fat weight (epididymal fat, retroperitoneal fat, and perirenal fat) and liver weight were measured. In Example 3, resveratrol manufactured by Cayman was employed. [table]"}, "[4]": {"details": "0.2% resveratrol in high-fat diet vs high-fat diet, P<0.01"}, "[5]": {"details": "0.2% resveratrol in high-fat diet vs high-fat diet, P<0.05"}}, "data": [{"smiles": "Oc1ccc(/C=C/c2cc(O)cc(O)c2)cc1", "note": "[Resveratrol, 3,4′,5-trihydroxy-trans-stilbene]", "values": [{"measurement": "Lipid degradation activity (β-oxidation activity) of skeletal muscle relative to control taken as 100", "setting": "[1]; Balb/c male mice, resveratrol 200 mg/kg body weight orally for 10 consecutive days, gastrocnemius + soleus muscle homogenate, [14C]-palmitic acid, control = 100", "value": 243}, {"measurement": "Lipid degradation activity (β-oxidation activity) of liver relative to control taken as 100", "setting": "[1]; Balb/c male mice, resveratrol 200 mg/kg body weight orally for 10 consecutive days, liver homogenate, [14C]-palmitic acid, control = 100", "value": 323}, {"measurement": "Lipid degradation activity (β-oxidation activity) of the liver and skeletal muscle (in words)", "setting": "[1]; resveratrol 200 mg/kg orally for 10 days vs saline control, liver p<0.001, muscle p<0.001", "value": "considerably increases"}, {"measurement": "Phospho-AMPKα (degree of AMPK activation relative to control taken as 100)", "setting": "[2]; resveratrol 150 μmol/L, 60 minutes, anti-phospho-AMPKα (Thr72) antibody, control = 100", "value": 538}, {"measurement": "Phospho-AMPKβ (degree of AMPK activation relative to control taken as 100)", "setting": "[2]; resveratrol 150 μmol/L, 60 minutes, anti-phospho-AMPKβ (Ser108) antibody, control = 100", "value": 168}, {"measurement": "AMPK activation effect (in words)", "setting": "[2]; summary of Table 1", "value": "potent AMPK activation effect"}, {"measurement": "Phospho-AMPKα (degree of AMPK activation relative to control taken as 100)", "setting": "[3]; C2C12 cells, resveratrol 150 μmol/L, 60 minutes, anti-phospho-AMPKα (Thr72) antibody, control = 100", "value": 848}, {"measurement": "Phospho-AMPKβ (degree of AMPK activation relative to control taken as 100)", "setting": "[3]; C2C12 cells, resveratrol 150 μmol/L, 60 minutes, anti-phospho-AMPKβ (Ser108) antibody, control = 100", "value": 425}, {"measurement": "AMPK activation effect in muscle cells (in words)", "setting": "[3]; summary of Table 2", "value": "potent AMPK activation effect"}, {"measurement": "Blood insulin level, group 3 compared with group 2 (in words)", "setting": "C57BL/6 male mice; 0.2% resveratrol in high-fat diet vs high-fat diet", "value": "lower than that in group 2"}, {"measurement": "Body weight, group 3 compared with group 2 (in words)", "setting": "C57BL/6 male mice; 0.2% resveratrol in high-fat diet vs high-fat diet, P<0.001", "value": "significantly lower than that in group 2"}, {"measurement": "Blood leptin level, group 3 compared with group 2 (in words)", "setting": "C57BL/6 male mice; [4]", "value": "significantly lower than that in group 2"}, {"measurement": "Visceral fat weight, group 3 compared with group 2 (in words)", "setting": "C57BL/6 male mice; [4]", "value": "significantly lower than that in group 2"}, {"measurement": "Liver weight, group 3 compared with group 2 (in words)", "setting": "C57BL/6 male mice; [5]", "value": "significantly lower than that in group 2"}, {"measurement": "Total cholesterol level, group 3 compared with group 2 (in words)", "setting": "C57BL/6 male mice; [5]", "value": "significantly lower than that in group 2"}, {"measurement": "Blood glucose level, group 3 compared with group 2 (in words)", "setting": "C57BL/6 male mice; 0.2% resveratrol in high-fat diet vs high-fat diet, P<0.1", "value": "lower than that in group 2"}, {"measurement": "Visceral fat weight", "setting": "C57BL/6 male mice; Group 3: high-fat diet with 0.2% resveratrol, epididymal, retroperitoneal and perirenal fat, group 1 0.88, group 2 2.17", "value": 1.00, "unit": "g"}, {"measurement": "Liver weight", "setting": "C57BL/6 male mice; Group 3: high-fat diet with 0.2% resveratrol, group 1 1.34, group 2 1.62", "value": 1.39, "unit": "g"}, {"measurement": "Body weight", "setting": "C57BL/6 male mice; Group 3: high-fat diet with 0.2% resveratrol, group 1 (low-fat) 32.2, group 2 (high-fat) 38.8", "value": 32.1, "unit": "g"}, {"measurement": "Leptin", "setting": "C57BL/6 male mice; Group 3: high-fat diet with 0.2% resveratrol, plasma, non-fasting, group 1 1.43, group 2 6.19", "value": 1.79, "unit": "ng/mL"}, {"measurement": "Insulin", "setting": "C57BL/6 male mice; Group 3: high-fat diet with 0.2% resveratrol, plasma, non-fasting, group 1 2.52, group 2 3.38", "value": 2.03, "unit": "ng/mL"}, {"measurement": "Total cholesterol", "setting": "C57BL/6 male mice; Group 3: high-fat diet with 0.2% resveratrol, plasma, non-fasting, group 1 58, group 2 76", "value": 60, "unit": "mg/dL"}, {"measurement": "Glucose", "setting": "C57BL/6 male mice; Group 3: high-fat diet with 0.2% resveratrol, plasma, non-fasting, group 1 133, group 2 191", "value": 162, "unit": "mg/dL"}]}]}
